# Assay results published in PubChem BioAssay AID1963828 (Molecular Pharmacology Branch, DTP, NCI, 2024).
# Test system: 991263-137-R1-J2-PDC complex spheroid viability
# Assay: Anticancer human tumor 991263-137-R1-J2-PDC patient-derived colon adenocarcinoma cell line growth inhibition [POLQ]
# Conditions: for IC50: curve of first compound; for viability, T/C: stronger effect = lower value
# Outline: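 Growth inhibition in 3D: complex spheroids (tumor PDC, HUVEC, MSC) treated with POLQ inhibitor combinations; where Cmax unknown, highest tested concentration 10 microM, except SN-38 at 1 microM.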
# [1] = second compound 0.0316 µM, first compound 0.0316 µM
# [2] = second compound 0.0316 µM, first compound 0.1 µM
# [3] = second compound 0.0316 µM, first compound 0.316 µM
# [4] = second compound 0.0316 µM, first compound 1 µM
# [5] = second compound 0.0316 µM, first compound 3.16 µM
# [6] = second compound 0.0316 µM, first compound 10 µM
# [7] = second compound 0.1 µM, first compound 0.0316 µM
# [8] = second compound 0.1 µM, first compound 0.1 µM
# [9] = second compound 0.1 µM, first compound 0.316 µM
# [10] = second compound 0.1 µM, first compound 1 µM
# [11] = second compound 0.1 µM, first compound 3.16 µM
# [12] = second compound 0.1 µM, first compound 10 µM
# [13] = second compound 0.316 µM, first compound 0.0316 µM
# [14] = second compound 0.316 µM, first compound 0.1 µM
# [15] = second compound 0.316 µM, first compound 0.316 µM
# [16] = second compound 0.316 µM, first compound 1 µM
# [17] = second compound 0.316 µM, first compound 3.16 µM
# [18] = second compound 0.316 µM, first compound 10 µM
# [19] = second compound 1 µM, first compound 0.0316 µM
# [20] = second compound 1 µM, first compound 0.1 µM
# [21] = second compound 1 µM, first compound 0.316 µM
# [22] = second compound 1 µM, first compound 1 µM
# [23] = second compound 1 µM, first compound 3.16 µM
# [24] = second compound 1 µM, first compound 10 µM
# [25] = second compound 3.16 µM, first compound 0.0316 µM
# [26] = second compound 3.16 µM, first compound 0.1 µM
# [27] = second compound 3.16 µM, first compound 0.316 µM
# [28] = second compound 3.16 µM, first compound 1 µM
# [29] = second compound 3.16 µM, first compound 3.16 µM
# [30] = second compound 3.16 µM, first compound 10 µM
# [31] = second compound 10 µM, first compound 0.0316 µM
# [32] = second compound 10 µM, first compound 0.1 µM
# [33] = second compound 10 µM, first compound 0.316 µM
# [34] = second compound 10 µM, first compound 1 µM
# [35] = second compound 10 µM, first compound 3.16 µM
# [36] = second compound 10 µM, first compound 10 µM
# 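Also: spheroids exposed to compounds for 7 days before readout.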
# 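For viability, T/C in this document: 100% = DMSO vehicle control viability.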
smiles,measurement,setting,value
C#Cc1c(F)ccc2cc(O)cc(-c3ncc4c(N5CC6CCC(C5)N6)nc(OCC56CCCN5CC(F)C6)nc4c3F)c12 (stereo not given) + Nc1ccc(C#CCN(C(=O)Cc2ncc(C(F)(F)F)cc2C(F)(F)F)c2ccc(F)cc2)nn1,IC50,second compound 0.0316 µM,> 10 µM
same,IC50,second compound 0.1 µM,> 10 µM
same,IC50,second compound 0.316 µM,> 10 µM
same,IC50,second compound 1 µM,> 10 µM
same,IC50,second compound 3.16 µM,> 10 µM
same,IC50,second compound 10 µM,> 10 µM
same,"viability, T/C",[1],104%
same,"viability, T/C",[2],111%
same,"viability, T/C",[3],99.6%
same,"viability, T/C",[4],102%
same,"viability, T/C",[5],105%
same,"viability, T/C",[6],88%
same,"viability, T/C",[7],103%
same,"viability, T/C",[8],108%
same,"viability, T/C",[9],96.5%
same,"viability, T/C",[10],102%
same,"viability, T/C",[11],103%
same,"viability, T/C",[12],92%
same,"viability, T/C",[13],103%
same,"viability, T/C",[14],99.8%
same,"viability, T/C",[15],99.8%
same,"viability, T/C",[16],102%
same,"viability, T/C",[17],105%
same,"viability, T/C",[18],108%
same,"viability, T/C",[19],97.5%
same,"viability, T/C",[20],95.2%
same,"viability, T/C",[21],107%
same,"viability, T/C",[22],86.8%
same,"viability, T/C",[23],106%
same,"viability, T/C",[24],96.1%
same,"viability, T/C",[25],102%
same,"viability, T/C",[26],105%
same,"viability, T/C",[27],104%
same,"viability, T/C",[28],112%
same,"viability, T/C",[29],123%
same,"viability, T/C",[30],98.7%
same,"viability, T/C",[31],100%
same,"viability, T/C",[32],98.2%
same,"viability, T/C",[33],93.4%
same,"viability, T/C",[34],101%
same,"viability, T/C",[35],87.6%
same,"viability, T/C",[36],80.4%
CC(C)n1c(=O)n(C)c2cnc3cc(F)c(-c4ccc(OCCCN5CCCCC5)nc4)cc3c21 + Nc1ccc(C#CCN(C(=O)Cc2ncc(C(F)(F)F)cc2C(F)(F)F)c2ccc(F)cc2)nn1,IC50,second compound 0.0316 µM,> 10 µM
same,IC50,second compound 0.1 µM,> 10 µM
same,IC50,second compound 0.316 µM,> 10 µM
same,IC50,second compound 1 µM,> 10 µM
same,IC50,second compound 3.16 µM,> 10 µM
same,IC50,second compound 10 µM,> 10 µM
same,"viability, T/C",[1],96.6%
same,"viability, T/C",[2],109%
same,"viability, T/C",[3],111%
same,"viability, T/C",[4],121%
same,"viability, T/C",[5],98.8%
same,"viability, T/C",[6],111%
same,"viability, T/C",[7],103%
same,"viability, T/C",[8],99.8%
same,"viability, T/C",[9],102%
same,"viability, T/C",[10],121%
same,"viability, T/C",[11],101%
same,"viability, T/C",[12],85.8%
same,"viability, T/C",[13],104%
same,"viability, T/C",[14],99.4%
same,"viability, T/C",[15],101%
same,"viability, T/C",[16],110%
same,"viability, T/C",[17],103%
same,"viability, T/C",[18],111%
same,"viability, T/C",[19],105%
same,"viability, T/C",[20],100%
same,"viability, T/C",[21],105%
same,"viability, T/C",[22],104%
same,"viability, T/C",[23],95.5%
same,"viability, T/C",[24],90.1%
same,"viability, T/C",[25],90.7%
same,"viability, T/C",[26],97.7%
same,"viability, T/C",[27],106%
same,"viability, T/C",[28],118%
same,"viability, T/C",[29],111%
same,"viability, T/C",[30],105%
same,"viability, T/C",[31],99%
same,"viability, T/C",[32],96.2%
same,"viability, T/C",[33],112%
same,"viability, T/C",[34],94.5%
same,"viability, T/C",[35],93.5%
same,"viability, T/C",[36],101%
CCc1cc2c(N3CCc4c(cc(Cn5ccnc5)cc4-c4cn(C)nc4C(F)(F)F)C3=O)cc(C)nc2c(OC)n1 + Nc1ccc(C#CCN(C(=O)Cc2ncc(C(F)(F)F)cc2C(F)(F)F)c2ccc(F)cc2)nn1,IC50,second compound 0.0316 µM,> 10 µM
same,IC50,second compound 0.1 µM,> 10 µM
same,IC50,second compound 0.316 µM,> 10 µM
same,IC50,second compound 1 µM,> 10 µM
same,IC50,second compound 3.16 µM,> 10 µM
same,IC50,second compound 10 µM,> 10 µM
same,"viability, T/C",[1],99.3%
same,"viability, T/C",[2],104%
same,"viability, T/C",[3],107%
same,"viability, T/C",[4],98.7%
same,"viability, T/C",[5],89.8%
same,"viability, T/C",[6],92.2%
same,"viability, T/C",[7],105%
same,"viability, T/C",[8],99.9%
same,"viability, T/C",[9],102%
same,"viability, T/C",[10],98.2%
same,"viability, T/C",[11],109%
same,"viability, T/C",[12],96.9%
same,"viability, T/C",[13],102%
same,"viability, T/C",[14],112%
same,"viability, T/C",[15],103%
same,"viability, T/C",[16],103%
same,"viability, T/C",[17],87.7%
same,"viability, T/C",[18],104%
same,"viability, T/C",[19],107%
same,"viability, T/C",[20],107%
same,"viability, T/C",[21],93.2%
same,"viability, T/C",[22],90.5%
same,"viability, T/C",[23],104%
same,"viability, T/C",[24],93%
same,"viability, T/C",[25],94.6%
same,"viability, T/C",[26],99.9%
same,"viability, T/C",[27],98.6%
same,"viability, T/C",[28],96.6%
same,"viability, T/C",[29],95.6%
same,"viability, T/C",[30],83.9%
same,"viability, T/C",[31],94.6%
same,"viability, T/C",[32],103%
same,"viability, T/C",[33],98.2%
same,"viability, T/C",[34],92.7%
same,"viability, T/C",[35],94.9%
same,"viability, T/C",[36],93.2%
COc1cc2cc(C(=O)CCC(=O)O)sc2cc1OC + Nc1ccc(C#CCN(C(=O)Cc2ncc(C(F)(F)F)cc2C(F)(F)F)c2ccc(F)cc2)nn1,IC50,second compound 0.0316 µM,> 10 µM
same,IC50,second compound 0.1 µM,> 10 µM
same,IC50,second compound 0.316 µM,> 10 µM
same,IC50,second compound 1 µM,> 10 µM
same,IC50,second compound 3.16 µM,> 10 µM
same,IC50,second compound 10 µM,> 10 µM
same,"viability, T/C",[1],115%
same,"viability, T/C",[2],108%
same,"viability, T/C",[3],111%
same,"viability, T/C",[4],116%
same,"viability, T/C",[5],87.9%
same,"viability, T/C",[6],84.8%
same,"viability, T/C",[7],116%
same,"viability, T/C",[8],115%
same,"viability, T/C",[9],95.8%
same,"viability, T/C",[10],98.7%
same,"viability, T/C",[11],113%
same,"viability, T/C",[12],93.8%
same,"viability, T/C",[13],97.1%
same,"viability, T/C",[14],105%
same,"viability, T/C",[15],102%
same,"viability, T/C",[16],104%
same,"viability, T/C",[17],95%
same,"viability, T/C",[18],77.5%
same,"viability, T/C",[19],107%
same,"viability, T/C",[20],103%
same,"viability, T/C",[21],108%
same,"viability, T/C",[22],96.8%
same,"viability, T/C",[23],104%
same,"viability, T/C",[24],86.6%
same,"viability, T/C",[25],106%
same,"viability, T/C",[26],99.6%
same,"viability, T/C",[27],105%
same,"viability, T/C",[28],103%
same,"viability, T/C",[29],105%
same,"viability, T/C",[30],88.2%
same,"viability, T/C",[31],101%
same,"viability, T/C",[32],96.6%
same,"viability, T/C",[33],112%
same,"viability, T/C",[34],94.7%
same,"viability, T/C",[35],107%
same,"viability, T/C",[36],82.1%
O=C(Nc1ccc(O)c(NS(=O)(=O)c2ccc(F)cc2)c1)c1ccc(-c2ccccc2)cc1 + Nc1ccc(C#CCN(C(=O)Cc2ncc(C(F)(F)F)cc2C(F)(F)F)c2ccc(F)cc2)nn1,IC50,second compound 0.0316 µM,> 10 µM
same,IC50,second compound 0.1 µM,> 10 µM
same,IC50,second compound 0.316 µM,> 10 µM
same,IC50,second compound 1 µM,> 10 µM
same,IC50,second compound 3.16 µM,> 10 µM
same,IC50,second compound 10 µM,> 10 µM
same,"viability, T/C",[1],97.7%
same,"viability, T/C",[2],108%
same,"viability, T/C",[3],107%
same,"viability, T/C",[4],104%
same,"viability, T/C",[5],119%
same,"viability, T/C",[6],100%
same,"viability, T/C",[7],111%
same,"viability, T/C",[8],97.5%
same,"viability, T/C",[9],108%
same,"viability, T/C",[10],107%
same,"viability, T/C",[11],107%
same,"viability, T/C",[12],107%
same,"viability, T/C",[13],101%
same,"viability, T/C",[14],105%
same,"viability, T/C",[15],107%
same,"viability, T/C",[16],105%
same,"viability, T/C",[17],114%
same,"viability, T/C",[18],101%
same,"viability, T/C",[19],96.2%
same,"viability, T/C",[20],100%
same,"viability, T/C",[21],104%
same,"viability, T/C",[22],105%
same,"viability, T/C",[23],97.2%
same,"viability, T/C",[24],102%
same,"viability, T/C",[25],107%
same,"viability, T/C",[26],108%
same,"viability, T/C",[27],95.7%
same,"viability, T/C",[28],109%
same,"viability, T/C",[29],97.4%
same,"viability, T/C",[30],95.3%
same,"viability, T/C",[31],102%
same,"viability, T/C",[32],110%
same,"viability, T/C",[33],94.5%
same,"viability, T/C",[34],104%
same,"viability, T/C",[35],92.5%
same,"viability, T/C",[36],101%
